We go through three compounds from patent US12558354B2, “Tumor necrosis factor alpha (TNF-alpha) small molecule inhibitor” (AJOU UNIVERSITY INDUSTRY-ACADEMIC COOPERATION FOUNDATION, priority 2019, dated 2026).

Entries after “also recorded” stand apart in the source; their conditions may differ.

One data set has as its target TNF-α (Homo sapiens, UniProt P01375). As to conditions: target TNF-α, literature; cited from earlier work.
Data set [1] addresses T1, recombinant mouse TNF-α (rmTNF-α) (Mus musculus, UniProt P06804).
T1 construct: purchased Miltenyi Biotec
T1 sequence (P06804 80-235 limits assumed): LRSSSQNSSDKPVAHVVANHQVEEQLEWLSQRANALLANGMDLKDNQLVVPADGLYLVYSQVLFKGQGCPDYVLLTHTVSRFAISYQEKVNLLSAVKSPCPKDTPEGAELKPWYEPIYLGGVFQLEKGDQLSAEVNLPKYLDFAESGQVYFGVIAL
Kind of data set: Cell death attenuation assay, act-D-sensitized L929 cells with rmTNF-α. The format is cell-based. As for the experimental part:
(§1) HDFs (10^4/well) and L929 cell lines (1.5×10^4/well) were seeded in 96-well plates and grown overnight under appropriate conditions. The next day, HDFs and L929 cells were pretreated with 1 μg/ml act-D and 0.1 μg/ml act-D, respectively, followed by incubated for 30 minutes. Thereafter, a 1-hour-preincubated mixture of 10 ng/ml rhTNFα with test compounds or 1 ng/ml rmTNFα with test compounds, was applied to HDFs and L929 cells, respectively. The cells were incubated for 24 hours post-treatment, and survival was measured by the MTT assay. Cell viability was calculated with reference to the no-treatment control group. The obtained values were normalized with respect to the act-D treatment group and then used to calculate death attenuation (%) rate using the following equation: […]

For data set [2], the target named is T2, recombinant human TNF-α (rhTNF-α) (Homo sapiens, UniProt P01375).
T2 construct: purchased Miltenyi Biotec
Nature of the data set: Cell death attenuation assay, act-D-sensitized HDFs with rhTNF-α. The format is cell-based. As for the experimental part:
as §1

Data set [3] concerns human dermal fibroblasts (HDFs). Nature of the data set: Cell viability (MTT) assay in human dermal fibroblasts. Format: cell-based. To be noted: 24 hours. The protocol:
(§2) FIG. 8A is a graph showing the effects of TIM1 and a solvent thereof, DMSO, on the viability of human dermal fibroblasts, in which cells (10^4/well) were treated with DMSO at 3 different concentrations (0.5, 1, and 2%) and TIM1 at 8 different concentrations (1, 3.125, 6.25, 12.5, 25, 50, 100, and 200 μM) for 24 hours, and the cell viability was monitored by an MTT assay. FIG. 8B is a graph showing the effect of TIM1 on the viability of a mouse fibrosarcoma cell line [L929 (1.5×10^4/well)] under the same conditions as in FIG. 8A. All experiments were independently performed 4 times, and mean±SEM of the independent experiments was calculated using a two-tailed paired Student's t-test (*P<0.05).
(§3) In order to measure cell viability, a colorimetric […] (MTT) assay (Sigma-Aldrich Co.) was performed. HDFs were seeded at a density of 10^4/well in 96-well plates (BD Biosciences, San Jose, CA, USA), grown overnight, and then treated with a test compound at various concentrations for 24 hours. The next day, the medium was replaced with a medium (100 μl/well) containing a 10% MTT solution, followed by incubated at 37° C. for 3 hours. This solution was replaced with DMSO (100 μl/well), and the plates were incubated at room temperature for 30 minutes. Thereafter, the plates were read at a wavelength of 540 nm using a microplate spectrophotometer system (Molecular Devices, Silicon Valley, California).

Data set [4] concerns TNF-α-dependent signaling pathways (NF-κB, MAPKs, caspases 3 and 8). Nature of the data set: Western blot of TNF-α-dependent signaling pathways in L929 cells. The format is cell-based, mouse. The protocol: Total protein was extracted from the treated cells using an M-PER mammalian protein extraction reagent (Thermo Fisher Scientific, Inc.). The cell pellets were dissolved in a mixture of M-PER with protease and phosphatase inhibitor cocktail (Thermo Fisher Scientific, Inc.) at 4° C. for 1 minute, and the lysate thus obtained was centrifuged at 16,000×g and 4° C. for 10 minutes. The supernatant containing the protein was collected in a separate Eppendorf tube, and a BCA assay (Sigma-Aldrich) was performed for protein quantification. 20 Hg of a protein sample was placed in a 10-12% polyacrylamide gel (containing SDS), and the separated protein was transferred to a nitrocellulose membrane (HYBOND ECL™; Amersham Pharmacia Biotech Inc, Piscataway, New Jersey) of a mini-PROTEAN tetra cell and mini trans-blot electrophoretic transfer cell system (Bio-Rad Laboratories). Membrane blocking was performed with 5% nonfat dried milk for 1 hour. The membrane was subjected to immunoblotting through gentle shaking overnight at a temperature of 4° C. with certain primary antibodies, i.e. antibodies to (phospho-)p-p65, p-JNK, JNK, p-ERK, ERK, cleaved caspase 3 (Cell Signaling Technology Inc., Danvers, MA, USA), p-p38, caspase 8, and β-actin (Santa Cruz Biotechnology Inc., Dallas, TX, USA). The next day, after rigorous washing with PBST, the membrane was incubated with peroxidase-conjugated anti-mouse or anti-rabbit IgG antibodies at room temperature for 2 hours. Protein was detected using a SuperSignal West Pico ECL solution (Thermo Fisher Scientific, Inc.) and visualized with a CHEMIDOC™ Touch Imaging System (Bio-Rad Laboratories).

In data set [5] the target is T2, recombinant human TNF-α (rhTNF-α). Nature of the data set: TNF-α-mediated hIL-8 secretion in HDFs (ELISA). The format is cell-based. To be noted: 24 hours. As for the experimental part:
(§4) HDFs were seeded at a density of 10^4/well in a 96-well plate (BD Biosciences) and grown overnight. The cells were treated for 24 hours with a 1-hour-pre-incubated mixture of rhTNF-α and test compounds. IL-8 secretion was assessed by a human IL-8 uncoated ELISA kit (eBioscience, Inc., San Diego, CA, USA), and IL-6 secretion level was assessed by a human IL-6 ELISA MAX™ Deluxe kit (BioLegend, San Diego, CA, USA). The microtiter plates were then analyzed at an appropriate wavelength using a microplate spectrophotometer system (Molecular Devices, Silicon Valley, California).

Data set [6] relates to murine fibrosarcoma cell line L929. Nature of the data set: Cell viability (MTT) assay in L929 cells. The format is cell-based. To be noted: L929, up to 200 μM, 24 hours. As for the experimental part:
as §2
as §3, with “This solution was replaced with DMSO (100 μl/well), and the plates were incubated at room temperature for 30 minutes.” left out

The target in data set [7] is T3, recombinant human TNF-α homotrimer (Homo sapiens, UniProt P01375).
T3 construct: purchased Miltenyi Biotec
Kind of data set: Dissociation of TNF-α trimerization assembly (cross-linking, Western blot), human. The format is biochemical. To be noted: cross-linked with BS3, Western blot. As for the experimental part:
(§5) Inhibitors were incubated with 100 ng of recombinant TNF-α at 37° C. for 1 hour and then cross-linked with 4.8 mM BS3 (Thermo Fisher Scientific, Inc.) at room temperature for 30 minutes. Then, a 1/10 volume of 1 M Tris-HCl (pH 7.5) was added to stop the reaction. Thereafter, samples were separated by SDS-PAGE, followed by Western blotting with anti-TNF-α antibody (Cell Signaling Technology Inc.).
For orientation: In western blotting, separated proteins are transferred to a membrane and probed.

For data set [8], the target named is T4, recombinant mouse TNF-α homotrimer (Mus musculus, UniProt P06804).
T4 construct: purchased Miltenyi Biotec
T4 sequence (P06804 80-235 limits assumed): T1 sequence (P06804 80-235 limits assumed)
Nature of the data set: Dissociation of TNF-α trimerization assembly (cross-linking, Western blot), mouse. Format: biochemical. To be noted: cross-linked with BS3, Western blot. As for the experimental part:
as §5

The target in data set [9] is T2, recombinant human TNF-α (rhTNF-α). Kind of data set: TNF-α-mediated hIL-6 secretion in HDFs (ELISA). To be noted: 24 hours. The format is cell-based. As for the experimental part:
as §4

The target in a further data set is T5, TNFRI (Homo sapiens, UniProt P19438).
T5 sequence (P19438 30-455): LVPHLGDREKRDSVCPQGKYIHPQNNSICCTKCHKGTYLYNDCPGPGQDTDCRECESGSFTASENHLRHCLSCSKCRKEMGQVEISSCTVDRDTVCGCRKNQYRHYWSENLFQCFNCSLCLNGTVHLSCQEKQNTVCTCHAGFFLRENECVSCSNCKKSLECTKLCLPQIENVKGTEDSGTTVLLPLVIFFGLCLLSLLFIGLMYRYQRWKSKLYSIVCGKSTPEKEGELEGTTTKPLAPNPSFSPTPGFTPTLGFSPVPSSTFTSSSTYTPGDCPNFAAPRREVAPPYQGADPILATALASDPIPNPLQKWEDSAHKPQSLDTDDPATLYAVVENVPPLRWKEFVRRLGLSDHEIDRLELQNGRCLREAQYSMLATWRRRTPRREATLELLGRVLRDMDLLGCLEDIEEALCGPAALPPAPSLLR
To be noted: target TNFRI, literature; cited from earlier work.

Where [10] appears, read: L929, 20 μM, rmTNF-α 1 ng/ml, 5-30 minutes.
Where [11] appears, read: HDFs, rhTNF-α 1 ng/ml pre-incubated 1 hour.

T2 sequence (P01375 77-233 limits assumed): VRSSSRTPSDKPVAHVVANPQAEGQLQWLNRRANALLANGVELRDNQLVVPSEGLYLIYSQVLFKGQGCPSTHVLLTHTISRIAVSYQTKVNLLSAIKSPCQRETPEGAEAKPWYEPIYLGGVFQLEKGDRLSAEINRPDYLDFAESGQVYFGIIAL
Chain of TNF-α (P01375 77-233 limits assumed, species assumed): as the sequence (P01375 77-233 limits assumed) above
T3 sequence (P01375 77-233 limits assumed): as above

For `O=C1Sc2c(S(=O)(=O)Nc3ccc(O)cc3)cc(S(=O)(=O)Nc3ccc(O)cc3)c3cccc1c23` [AP-906/41640035], the IC50 (commonly the concentration that inhibits the measured activity by half) on TNF-α is 14 µM.
For `C#Cc1cccc(Nc2nc(-c3cc(C)n(NC(=O)c4nn(C)c(=O)c5ccccc45)c3C)cs2)c1` [TIM1, N-(3-{2-[(3-ethynylphenyl)amino]-1,3-thiazol-4-yl}-2,5-dimethylpyrrol-1-yl)-3-methyl-4-oxophthalazine-1-carboxamide], the IC50 in [1] came out at 24.9 µM; in [2], 26.2 µM; in [5] (setting [11]), 16.7 µM; in [9] (setting [11]), 6.3 µM. Also, in data set [1] (act-D-sensitized L929, rmTNF-α 1 ng/ml, 1-100 μM), the “inhibition of rmTNF-α-mediated proapoptotic pathway / cell death” value is “inhibited the rmTNF-α-mediated proapoptotic pathway in L929 cells in a concentration-dependent manner”. The “attenuation of TNF-α-induced apoptosis” value in data set [2] (act-D-sensitized HDFs, rhTNF-α 10 ng/ml, 1-100 μM) was “Significant attenuation”. Moreover, the “lethality / cytotoxicity at increasing concentrations” value in [3] (HDF, up to 200 μM) is listed as “no lethality; also recorded: does not show cytotoxicity up to 200 μM”. The “cytotoxicity (cell viability, MTT assay)” value in data set [3] (HDFs) is “no cytotoxicity up to a concentration of 50 μM; also recorded: did not exhibit cytotoxicity even at high concentrations (up to 100 μM)”. In data set [4] (setting [10]), the “TNF-α-mediated phosphorylation of the p65 subunit (NF-κB)” value is recorded as “attenuated”. For the same compound, in [4] (setting [10]), the “phosphorylation of MAPKs (p38 MAPK, JNK, ERK)” value is “inhibited”. In addition, the “formation of cleaved active caspases 3 and 8” value in data set [4] (L929, TNF-α stimulation) was “blocked”. Further, the “inhibition of TNF-α-mediated hIL-8 secretion” value in data set [5] (HDFs, 1, 10, 50 and 100 μM) is recorded as “inhibited TNF-α-mediated secretion”. In [6], the “lethality at increasing concentrations” value is “no lethality”. Moreover, the “formation of functional homotrimers, rhTNF-α” value in data set [7] was “inhibited the formation of functional homotrimers”. The “formation of functional homotrimers, rmTNF-α” value in [8] is “inhibited the formation of functional homotrimers”. The “inhibition of TNF-α-mediated hIL-6 secretion” value in data set [9] (HDFs, 1, 10, 50 and 100 μM) was “inhibited TNF-α-mediated secretion”.
On to Physcion-8-O-β-D-monoglucoside, for which the Kd (as a rule, the free concentration of one partner at which half of the binding sites on the other are occupied at equilibrium, for simple one-to-one binding) at TNFRI is 0.376 µM.
